Experimental data published in PMC5813235, “Selective inhibition of TRPM2 channel by two novel synthesized ADPR analogues” (Chemical Biology & Drug Design, 2017).

Target: T1, human TRPM2 (Homo sapiens, UniProt O94759)
T1 construct: whole-cell patch clamp
Assay: whole-cell patch clamp, current inhibition
Assay type: cell-based
Settings: not given

T1 sequence (O94759 whole entry): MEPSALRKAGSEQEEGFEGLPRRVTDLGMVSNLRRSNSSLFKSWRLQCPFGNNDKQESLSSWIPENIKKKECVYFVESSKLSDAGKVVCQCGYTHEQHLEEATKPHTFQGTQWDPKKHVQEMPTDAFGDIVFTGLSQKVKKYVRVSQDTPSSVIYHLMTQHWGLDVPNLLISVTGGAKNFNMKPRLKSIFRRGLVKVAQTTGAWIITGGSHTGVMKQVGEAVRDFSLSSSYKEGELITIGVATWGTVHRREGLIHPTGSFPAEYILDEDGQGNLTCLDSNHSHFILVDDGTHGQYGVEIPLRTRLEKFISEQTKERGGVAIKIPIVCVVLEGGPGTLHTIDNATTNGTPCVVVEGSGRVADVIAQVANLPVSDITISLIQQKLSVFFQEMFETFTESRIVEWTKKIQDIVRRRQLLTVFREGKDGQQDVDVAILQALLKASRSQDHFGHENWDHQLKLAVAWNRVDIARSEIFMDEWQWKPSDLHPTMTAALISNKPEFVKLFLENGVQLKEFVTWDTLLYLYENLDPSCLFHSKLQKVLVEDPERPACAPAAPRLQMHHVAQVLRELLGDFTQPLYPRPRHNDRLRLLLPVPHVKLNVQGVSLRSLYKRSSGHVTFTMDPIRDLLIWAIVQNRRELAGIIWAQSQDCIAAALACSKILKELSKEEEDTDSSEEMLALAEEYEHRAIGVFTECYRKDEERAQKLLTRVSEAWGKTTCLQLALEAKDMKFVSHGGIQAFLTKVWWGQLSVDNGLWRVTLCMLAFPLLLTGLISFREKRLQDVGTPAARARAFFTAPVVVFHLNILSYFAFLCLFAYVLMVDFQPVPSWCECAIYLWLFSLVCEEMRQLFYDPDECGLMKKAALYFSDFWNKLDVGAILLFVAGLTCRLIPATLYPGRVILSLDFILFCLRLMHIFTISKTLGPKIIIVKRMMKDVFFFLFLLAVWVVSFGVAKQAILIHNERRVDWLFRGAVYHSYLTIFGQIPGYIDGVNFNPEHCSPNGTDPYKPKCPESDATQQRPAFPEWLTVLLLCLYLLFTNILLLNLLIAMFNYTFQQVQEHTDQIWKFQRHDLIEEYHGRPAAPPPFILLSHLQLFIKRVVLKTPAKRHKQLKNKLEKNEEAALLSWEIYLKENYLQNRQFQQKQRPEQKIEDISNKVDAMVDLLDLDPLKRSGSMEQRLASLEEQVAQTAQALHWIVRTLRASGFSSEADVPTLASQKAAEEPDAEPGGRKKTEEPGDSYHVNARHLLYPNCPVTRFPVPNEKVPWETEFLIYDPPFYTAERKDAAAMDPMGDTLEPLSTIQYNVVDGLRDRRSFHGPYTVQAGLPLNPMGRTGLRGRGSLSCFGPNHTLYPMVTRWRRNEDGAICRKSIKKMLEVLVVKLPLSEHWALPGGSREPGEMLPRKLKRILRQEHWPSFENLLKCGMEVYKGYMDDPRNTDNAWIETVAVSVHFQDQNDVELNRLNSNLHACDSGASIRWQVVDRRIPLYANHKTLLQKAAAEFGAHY

IC50 [µM] | SMILES
> 100 | Nc1nc(N)c2ncn([C@@H]3O[C@H](COP(=O)(O)C(F)(F)P(=O)(O)OC[C@H]4OC(O)[C@H](O)[C@@H]4O)[C@@H](O)[C@H]3O)c2n1 (stereo partly drawn) [10k]
> 100 | Nc1nc(I)nc2c1ncn2[C@@H]1O[C@H](COP(=O)(O)CP(=O)(O)OC[C@H]2OC(O)[C@H](O)[C@@H]2O)[C@@H](O)[C@H]1O (stereo partly drawn) [10m]
> 100 | CNc1ncnc2c1ncn2[C@@H]1O[C@H](COP(=O)(O)CP(=O)(O)OC[C@H]2OC(O)[C@H](O)[C@@H]2O)[C@@H](O)[C@H]1O (stereo partly drawn) [10f]
> 100 | CN(C)c1ncnc2c1ncn2[C@@H]1O[C@H](COP(=O)(O)CP(=O)(O)OC[C@H]2OC(O)[C@H](O)[C@@H]2O)[C@@H](O)[C@H]1O (stereo partly drawn) [10g]
> 100 | Nc1nc(Cl)nc2c1ncn2[C@@H]1O[C@H](COP(=O)(O)CP(=O)(O)OC[C@H]2OC(O)[C@H](O)[C@@H]2O)[C@@H](O)[C@H]1O (stereo partly drawn) [10b]
> 100 | Nc1nc(Cl)nc2c1ncn2[C@@H]1O[C@H](COP(=O)(O)C(F)(F)P(=O)(O)OC[C@H]2OC(O)[C@H](O)[C@@H]2O)[C@@H](O)[C@H]1O (stereo partly drawn) [10i]
> 100 | Nc1nc(I)nc2c1ncn2[C@@H]1O[C@H](COP(=O)(O)C(F)(F)P(=O)(O)OC[C@H]2OC(O)[C@H](O)[C@@H]2O)[C@@H](O)[C@H]1O (stereo partly drawn) [10o]
> 100 | Nc1nc(Br)nc2c1ncn2[C@@H]1O[C@H](COP(=O)(O)CP(=O)(O)OC[C@H]2OC(O)[C@H](O)[C@@H]2O)[C@@H](O)[C@H]1O (stereo partly drawn) [10c]
> 100 | COc1nc(N)c2ncn([C@@H]3O[C@H](COP(=O)(O)CP(=O)(O)OC[C@H]4OC(O)[C@H](O)[C@@H]4O)[C@@H](O)[C@H]3O)c2n1 (stereo partly drawn) [10d]
> 100 | Nc1ncnc2c1ncn2[C@@H]1O[C@H](COP(=O)(O)C(F)(F)P(=O)(O)OC[C@H]2OC(O)[C@H](O)[C@@H]2O)[C@@H](O)[C@H]1O (stereo partly drawn) [10h]
> 100 | COc1nc(N)c2ncn([C@@H]3O[C@H](COP(=O)(O)C(F)(F)P(=O)(O)OC[C@H]4OC(O)[C@H](O)[C@@H]4O)[C@@H](O)[C@H]3O)c2n1 (stereo partly drawn) [10j]
> 100 | Nc1nc(N)c2ncn([C@@H]3O[C@H](COP(=O)(O)CP(=O)(O)OC[C@H]4OC(O)[C@H](O)[C@@H]4O)[C@@H](O)[C@H]3O)c2n1 (stereo partly drawn) [10e]

Second part, the molecule before the results:

SMILES | IC50 [µM]
COC1O[C@H](COP(=O)(O)C(F)(F)P(=O)(O)OC[C@H]2O[C@@H](n3cnc4c(N)nc(I)nc43)[C@H](O)[C@@H]2O)[C@@H](O)[C@H]1O (stereo partly drawn) [9b] | > 100
COC1O[C@H](COP(=O)(O)CP(=O)(O)OC[C@H]2O[C@@H](n3cnc4c(N)ncnc43)[C@H](O)[C@@H]2O)[C@H]2OC(C)(C)O[C@@H]12 (stereo partly drawn) [8a, 1″‐O‐methyl‐2″,3″‐O‐isopropylidene‐5′‐methylenediphosphoribose adenosine] | 5.4
COC1O[C@H](COP(=O)(O)CP(=O)(O)OC[C@H]2O[C@@H](n3cnc4c(N)ncnc43)[C@@H]3OC(C)(C)O[C@@H]32)[C@H]2OC(C)(C)O[C@@H]12 (stereo partly drawn) [7a, 1″‐O‐methyl‐2″,2′,3″,3′‐O‐isopropylidene‐5′‐methylenediphoribose adenosine] | > 100
COC1O[C@H](COP(=O)(O)C(F)(F)P(=O)(O)OC[C@H]2O[C@@H](n3cnc4c(N)nc(Cl)nc43)[C@H](O)[C@@H]2O)[C@H]2OC(C)(C)O[C@@H]12 (stereo partly drawn) [8c] | > 100
COC1O[C@H](COP(=O)(O)CP(=O)(O)OC[C@H]2O[C@@H](n3cnc4c(N(C)C)ncnc43)[C@@H]3OC(C)(C)O[C@@H]32)[C@H]2OC(C)(C)O[C@@H]12 (stereo partly drawn) [7g] | > 100
COC1O[C@H](COP(=O)(O)CP(=O)(O)OC[C@H]2O[C@@H](n3cnc4c(N)nc(Br)nc43)[C@@H]3OC(C)(C)O[C@@H]32)[C@H]2OC(C)(C)O[C@@H]12 (stereo partly drawn) [7c] | > 100
COC1O[C@H](COP(=O)(O)C(F)(F)P(=O)(O)OC[C@H]2O[C@@H](n3cnc4c(N)ncnc43)[C@@H]3OC(C)(C)O[C@@H]32)[C@H]2OC(C)(C)O[C@@H]12 (stereo partly drawn) [7h] | > 100
COC1O[C@H](COP(=O)(O)CP(=O)(O)OC[C@H]2O[C@@H](n3cnc4c(N)nc(N)nc43)[C@@H]3OC(C)(C)O[C@@H]32)[C@H]2OC(C)(C)O[C@@H]12 (stereo partly drawn) [7e] | > 100
COc1nc(N)c2ncn([C@@H]3O[C@H](COP(=O)(O)C(F)(F)P(=O)(O)OC[C@H]4OC(OC)[C@@H]5OC(C)(C)O[C@H]45)[C@H]4OC(C)(C)O[C@H]43)c2n1 (stereo partly drawn) [7j] | > 100
COC1O[C@H](COP(=O)(O)CP(=O)(O)OC[C@H]2O[C@@H](n3cnc4c(N)ncnc43)[C@H](OC)[C@@H]2O)[C@H]2OC(C)(C)O[C@@H]12 (stereo partly drawn) [compound 13, 1″‐O‐methyl‐2″,3″‐O‐isopropylidene‐2′‐methoxy‐5′‐methylenediphoribose adenosine] | > 100
COc1nc(N)c2ncn([C@@H]3O[C@H](COP(=O)(O)CP(=O)(O)OC[C@H]4OC(OC)[C@@H]5OC(C)(C)O[C@H]45)[C@H]4OC(C)(C)O[C@H]43)c2n1 (stereo partly drawn) [7d] | > 100
COC1O[C@H](COP(=O)(O)CP(=O)(O)OC[C@H]2O[C@@H](n3cnc4c(N)nc(Cl)nc43)[C@@H]3OC(C)(C)O[C@@H]32)[C@H]2OC(C)(C)O[C@@H]12 (stereo partly drawn) [7b] | > 100
COC1O[C@H](COP(=O)(O)C(F)(F)P(=O)(O)OC[C@H]2O[C@@H](n3cnc4c(N)nc(I)nc43)[C@@H]3OC(C)(C)O[C@@H]32)[C@H]2OC(C)(C)O[C@@H]12 (stereo partly drawn) [7o] | > 100
COC1O[C@H](COP(=O)(O)C(F)(F)P(=O)(O)OC[C@H]2O[C@@H](n3cnc4c(N)nc(Cl)nc43)[C@@H]3OC(C)(C)O[C@@H]32)[C@H]2OC(C)(C)O[C@@H]12 (stereo partly drawn) [7i] | 5.7
COC1O[C@H](COP(=O)(O)CP(=O)(O)OC[C@H]2O[C@@H](n3cnc4c(N)nc(Cl)nc43)[C@H](O)[C@@H]2O)[C@H]2OC(C)(C)O[C@@H]12 (stereo partly drawn) [8b] | > 100
COC1O[C@H](COP(=O)(O)C(F)(F)P(=O)(O)OC[C@H]2O[C@@H](n3cnc4c(N)nc(Br)nc43)[C@@H]3OC(C)(C)O[C@@H]32)[C@H]2OC(C)(C)O[C@@H]12 (stereo partly drawn) [7n, 1″‐O‐methyl‐2″,2′,3″,3′‐O‐isopropylidene‐5′‐difluoromethylenediphosphoribose‐2‐bromoadenosine] | > 100
CO[C@@H]1[C@H](O)[C@@H](COP(=O)(O)CP(=O)(O)OC[C@H]2OC(O)[C@H](O)[C@@H]2O)O[C@H]1n1cnc2c(N)ncnc21 (stereo partly drawn) [compound 14, 2′‐methoxy‐5′‐methylenediphoribose adenosine] | > 100
CNc1ncnc2c1ncn2[C@@H]1O[C@H](COP(=O)(O)CP(=O)(O)OC[C@H]2OC(OC)[C@@H]3OC(C)(C)O[C@H]23)[C@H]2OC(C)(C)O[C@H]21 (stereo partly drawn) [7f] | > 100
COC1O[C@H](COP(=O)(O)OP(=O)(O)OC[C@H]2O[C@@H](n3cnc4c(N)ncnc43)[C@@H]3OC(C)(C)O[C@@H]32)[C@H]2OC(C)(C)O[C@@H]12 (stereo partly drawn) [7l] | > 100
COC1O[C@H](COP(=O)(O)CP(=O)(O)OC[C@H]2O[C@@H](n3cnc4c(N)nc(I)nc43)[C@@H]3OC(C)(C)O[C@@H]32)[C@H]2OC(C)(C)O[C@@H]12 (stereo partly drawn) [7m] | > 100
COC1O[C@H](COP(=O)(O)C(F)(F)P(=O)(O)OC[C@H]2O[C@@H](n3cnc4c(N)nc(Br)nc43)[C@H](O)[C@@H]2O)[C@@H](O)[C@H]1O (stereo partly drawn) [9a, 1″‐O‐methyl‐difluoromethylenediphosphoribose‐2‐bromoadenosine] | > 100
COC1O[C@H](COP(=O)(O)C(F)(F)P(=O)(O)OC[C@H]2O[C@@H](n3cnc4c(N)nc(N)nc43)[C@@H]3OC(C)(C)O[C@@H]32)[C@H]2OC(C)(C)O[C@@H]12 (stereo partly drawn) [7k] | > 100
COC1O[C@H](COP(=O)(O)C(F)(F)P(=O)(O)OC[C@H]2O[C@@H](n3cnc4c(N)nc(I)nc43)[C@H](O)[C@@H]2O)[C@H]2OC(C)(C)O[C@@H]12 (stereo partly drawn) [8e] | > 100
COC1O[C@H](COP(=O)(O)C(F)(F)P(=O)(O)OC[C@H]2O[C@@H](n3cnc4c(N)nc(Br)nc43)[C@H](O)[C@@H]2O)[C@H]2OC(C)(C)O[C@@H]12 (stereo partly drawn) [8d, 1″‐O‐methyl‐2″,3″‐O‐isopropylidene‐5′‐difluoromethylenediphosphoribose‐2‐bromoadenosine] | > 100

Same assay, conditions: compound in intracellular (pipette) solution with 0.1 mM ADPR as activator; room temperature; pH 7.3 inside, 7.4 outside

IC50 [µM] | SMILES
> 100 | Nc1nc(Br)nc2c1ncn2[C@@H]1O[C@H](COP(=O)(O)C(F)(F)P(=O)(O)OC[C@H]2OC(O)[C@H](O)[C@@H]2O)[C@@H](O)[C@H]1O (stereo partly drawn) [10n, difluoromethylenediphosphoribose‐2‐bromoadenosine]
> 100 | Nc1ncnc2c1ncn2[C@@H]1O[C@H](COP(=O)(O)CP(=O)(O)OC[C@H]2OC(O)[C@H](O)[C@@H]2O)[C@@H](O)[C@H]1O (stereo partly drawn) [10a, methylenediphosphoribose adenosine]

Same assay, conditions: compound in intracellular solution with 0.1 mM ADPR; drawn structure is ADPR itself, the channel activator

IC50 [µM] | SMILES
> 100 | Nc1ncnc2c1ncn2[C@@H]1O[C@H](COP(=O)(O)OP(=O)(O)OC[C@H]2OC(O)[C@H](O)[C@@H]2O)[C@@H](O)[C@H]1O (stereo partly drawn) [10l]
